Measurements published in ChEMBL document CHEMBL1201862, “PubChem BioAssay data set” (2004).
Counter-ions that a name gives are not always drawn.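 Step 1: Grow cells in 96-well plates. Step 2: Expose to compound for 48 hours at 5 concentrations. Step 3: Interpolate endpoints linearly; if unreached, use highest concentration. GI50 marks 50% less growth.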 Activity calls are given as the source filed them. Rule as the data show it: active = GI50 up to about 1.1 µM and inactive = higher.

Experiments:
Assay in all cases: DTP human tumour cell line panel, 48 h
CAKI-1 = system: CAKI-1
HCC 2998 = system: HCC 2998
Hs-578T = system: Hs-578T
KM12 = system: KM12
LOX IMVI = system: LOX IMVI
MOLT-4 = system: MOLT-4
NCI-H226 = system: NCI-H226
NCI-H460 = system: NCI-H460
NCI/ADR-RES = system: NCI/ADR-RES
OVCAR-8 = system: OVCAR-8
PC-3 = system: PC-3
RXF 393 = system: RXF 393
SF-268 = system: SF-268
SF-539 = system: SF-539
SK-MEL-28 = system: SK-MEL-28
SNB-19 = system: SNB-19
SW-620 = system: SW-620
T47D = system: T47D
TK-10 = system: TK-10
SR = system: SR

SMILES | GI50 (CAKI-1) | GI50 (HCC 2998) | GI50 (Hs-578T) | GI50 (KM12) | GI50 (LOX IMVI) | GI50 (MOLT-4) | GI50 (NCI-H226) | GI50 (NCI-H460) | GI50 (NCI/ADR-RES) | GI50 (OVCAR-8) | GI50 (PC-3) | GI50 (RXF 393) | GI50 (SF-268) | GI50 (SF-539) | GI50 (SK-MEL-28) | GI50 (SNB-19) | GI50 (SW-620) | GI50 (T47D) | GI50 (TK-10) | GI50 (SR)
O=C(CC(=O)Nc1ccccc1Cl)NNC(Sc1ccccc1)c1cc(/N=N/c2ccc(Br)cc2)ccc1O (centres undefined) | 1.46 µM (inactive) | 2.81 µM (inactive) | 3.13 µM (inactive) | 1.35 µM (inactive) | 0.927 µM (active) | 0.321 µM (active) | 1.67 µM (inactive) | 0.625 µM (active) | 1.28 µM (inactive) | 0.598 µM (active) | 0.571 µM (active) | 1.53 µM (inactive) | 0.74 µM (active) | 1.45 µM (inactive) | 2.69 µM (inactive) | 4.06 µM (inactive) | 0.69 µM (active) | 2.02 µM (inactive) | 1.69 µM (inactive) | –
CCOc1ccc(N/C(=C(/C(Cl)=C(/Cl)N2CCCCC2)[N+](=O)[O-])n2nnc3ccccc32)cc1 | 9.23 µM (inactive) | 21 µM (inactive) | – | 14.2 µM (inactive) | – | 5.27 µM (inactive) | 27.9 µM (inactive) | 22.2 µM (inactive) | 19.3 µM (inactive) | – | 11.6 µM (inactive) | – | 17.4 µM (inactive) | 16.4 µM (inactive) | 18.5 µM (inactive) | 19.9 µM (inactive) | – | 17.3 µM (inactive) | 32.8 µM (inactive) | –
O=C(CN1C(=O)c2ccccc2C1=O)OCC1CCCN2CCCCC12 (centres undefined) | > 100 µM (inactive) | > 100 µM (inactive) | > 100 µM (inactive) | > 100 µM (inactive) | > 100 µM (inactive) | > 100 µM (inactive) | > 100 µM (inactive) | > 100 µM (inactive) | > 100 µM (inactive) | > 100 µM (inactive) | > 100 µM (inactive) | > 100 µM (inactive) | > 100 µM (inactive) | > 100 µM (inactive) | > 100 µM (inactive) | > 100 µM (inactive) | > 100 µM (inactive) | > 100 µM (inactive) | > 100 µM (inactive) | –
O=C(O)CN1CCNCCN(CC(=O)O)CCN(CC(=O)O)CCNCC1 | > 100 µM (inactive) | – | > 100 µM (inactive) | > 100 µM (inactive) | 91.2 µM (inactive) | 83.6 µM (inactive) | > 100 µM (inactive) | 68.7 µM (inactive) | 23.3 µM (inactive) | 96.2 µM (inactive) | > 100 µM (inactive) | – | – | 63.7 µM (inactive) | > 100 µM (inactive) | > 100 µM (inactive) | 41.5 µM (inactive) | > 100 µM (inactive) | > 100 µM (inactive) | 61.1 µM (inactive)
Cc1cc(NS(=O)(=O)c2ccc(NC(=O)c3cccc4c(NNc5ccc(S(N)(=O)=O)cc5)c5ccccc5nc34)cc2)no1 | > 100 µM (inactive) | 27.3 µM (inactive) | – | 38.1 µM (inactive) | 30.5 µM (inactive) | 31 µM (inactive) | 34 µM (inactive) | 34.9 µM (inactive) | > 100 µM (inactive) | 47.9 µM (inactive) | 33.7 µM (inactive) | 41.5 µM (inactive) | 34.9 µM (inactive) | > 100 µM (inactive) | 35.2 µM (inactive) | 60.4 µM (inactive) | 37.2 µM (inactive) | 26 µM (inactive) | 83.2 µM (inactive) | 35.8 µM (inactive)
COc1ccccc1N1C(=O)/C(=C\c2cc(OC)c(OC)c(OC)c2)S(=O)(=O)C1c1ccccc1 (centres undefined) | 53.3 µM (inactive) | 79.4 µM (inactive) | 32.7 µM (inactive) | 28.6 µM (inactive) | 29.4 µM (inactive) | 31.8 µM (inactive) | 44.8 µM (inactive) | 61.1 µM (inactive) | 22.2 µM (inactive) | 37.2 µM (inactive) | – | 10.6 µM (inactive) | 44.4 µM (inactive) | 25.5 µM (inactive) | 27.4 µM (inactive) | 32.6 µM (inactive) | 30 µM (inactive) | 29.6 µM (inactive) | > 100 µM (inactive) | 23.7 µM (inactive)
COc1ccc(C(=O)/C=C2\Nc3cccnc3N\C2=C/C(=O)c2ccc(OC)cc2)cc1 | 17.2 µM (inactive) | 23.9 µM (inactive) | 15.2 µM (inactive) | 23.4 µM (inactive) | 13.9 µM (inactive) | 27.9 µM (inactive) | 4.8 µM (inactive) | 9.18 µM (inactive) | 17.4 µM (inactive) | 14.3 µM (inactive) | > 100 µM (inactive) | – | 7.8 µM (inactive) | 12.5 µM (inactive) | 16.9 µM (inactive) | 18.7 µM (inactive) | – | 11.5 µM (inactive) | 13.2 µM (inactive) | 16.1 µM (inactive)
NCCCCN [PUTRESCINE HYDROCHLORIDE] | 15 µM (inactive) | > 100 µM (inactive) | – | 16.3 µM (inactive) | > 100 µM (inactive) | > 100 µM (inactive) | > 100 µM (inactive) | > 100 µM (inactive) | > 100 µM (inactive) | > 100 µM (inactive) | > 100 µM (inactive) | > 100 µM (inactive) | > 100 µM (inactive) | > 100 µM (inactive) | > 100 µM (inactive) | > 100 µM (inactive) | > 100 µM (inactive) | > 100 µM (inactive) | > 100 µM (inactive) | > 100 µM (inactive)
